Experimental data taken from patent publication EP1268431B1 (Wyeth, priority 2000, dated 2001).
“And” between values parts separate entries of the source, which are not always exact repeats. Identical values can stand only once.

Experiments:
Raf-1 (c-Raf) = biological target: T1, Raf-1 (c-Raf) (Homo sapiens, UniProt P04049); test: Raf1 Kinase Cascade Assay; type: biochemical
T1 construct: Sf9 insect cell lysate containing full length 6his-tagged recombinant human c-Raf; 6his; host or cells: Sf9 insect cells (c-Raf, used as lysate); E. coli (GST-MEK1, GST-MAPK)
Description: (Specific Activity: -200U/ml). Human Non-active Mek-1-GST and human GST-MAP kinase (recombinant proteins produced in E. coli).
• Assay Dilution Buffer (ADB); 20mM MOPS, pH 7.2, 25mM β-glycerol phosphate, 5mM EGTA, 1mM sodium orthovanadate, 1mM dithiothreitol. • Magnesium/ATP Cocktail: 500µM cold ATP and 75 mM magnesium chloride in ADB. • Active Kinase: Human Active c-Raf: Use at 0.4U per assay point. • Non-active GST-MEK1: Use at 0.1 µg per assay point. • Non-active GST-p42 MAP Kinase: Use at 1.0 µg per assay point.
• TBST - Tris (50 mM, pH 7.5), NaCl (150 mM), Tween-20 (0.05 %) • Superblock (Pierce) • Anti-GST Ab (Pharmacia) • Anti-Phospho MAPK (Sigma) • Anti-Mouse Ab / Europium conjugate (Wallac)
IC50 determinations - done on compounds from single point assays with >80% inhibition. Typically Raf-1 assay is run at compound concentrations from 10 µM to 30 nM in half log dilutions. (% inhibition is determined for each compound concentration).

[1] = system: human adenocarcinoma cell line CaCo-2; test: Cell Based Screen for Inhibitors of Raf Kinase, CaCo-2 cells; details: CaCo-2, four days, SRB
Description: (§1) • Cell Lines: Human adenocarcinoma cell line LoVo which is known to be growth inhibited by low nM concentrations of a reference standard inhibitor of Ras and human adenocarcinoma cell line CaCo-2, which is known to be growth resistant to the same reference compound. • Cell Media: RPMI 1640 with 10% Fetal Bovine Serum supplemented with L-glutamine and Pennicilin/Streptomycin. • Compounds: Supplied usually as a 10 mM stock in 100% DMSO. • Normal Saline: 150 mM NaCl • Trichloroacetic Acid (TCA): 50% (w/v) in water • Sulforhodamine B (SRB): 0.4% (w/v) in 1% Acetic Acid • Tris Base: 10 mM in water
(§2) Cells are plated at 2000 cells per well for cell line LoVo and 1500 cells for cell line CaCo-2 in 96 well plates. Cells are plated in media (200 µl) and allowed to adhere overnight at 37° C. At 24 hours post plating, compounds are added directly at a volume of 0.5 µl. For the qualitative screen (compounds screened at 25 µM) compound is added directly to cells. For the quantitative screen, compound is first diluted in DMSO to generate concentrations of compound or reference standard of: 1, 5, 10 and 25 µM. It is advisable to make the dilutions in an identical 96 well plate so that compounds may be added using a multichannel micropipettor set at 0.5 µl. The cells are then incubated for four days after which the media is removed using a 12 well manifold by first tipping the plate forward at a 45 degree angle and then inserting the manifold in an upright orientation to prevent the tips of the manifold from disturbing cells at the bottom of the plate. 200 µl of normal saline is then added to each well using an 8 well multichannel pipettor, followed by the careful addition of 50 µl of 50% TCA. The plates are then incubated for 2 hours at 4 ° C, after which the supernatant is removed using the same technique as above and the plated washed twice with 200 µl water. The plates are then air dried and 50 µl of SRB stock solution is carefully added so that the entire bottom of each well is covered. This again may be used using an 8 well multichannel pipettor. The SRB is incubated with fixed cells for 15 minutes at room temperature after which the SRB is removed with the manifold as described above and the plates washed twice with 350 µl of 1% acetic acid per well each time.The plates are then air dried after which the bound SRB is released from protein by the addition of 200 µl of Tris base. Resolubilizing the SRB is aided by placing the plates on a rotator for 15-30 minutes. The absorbance of each well is determined at 550 or 562 nm using a microtiter plate reader.
(§3) Each compound or dilution thereof is performed in triplicate. Outliers are identified by visual inspection of the data. Each plate should have a "0" control (vehicle only).
(§4) Quantitative Assay: A standard curve is constructed by plotting the concentration of compound against the average absorbance calculated at that concentration. A curve is plotted and the concentration at which the curve passes through the 50% the absorbance mark seen in the "0" control well is the IC50 calculated for that compound. […]

[2] = system: Human adenocarcinoma cell line LoVo; test: Cell Based Screen for Inhibitors of Raf Kinase, LoVo cells; details: four days, SRB
Description: as §1, §2, §3, §4

“4-({3-chloro-4-[(1-methyl-1H-imidazol-2-yl)sulfanyl]phenyl}amino) -7-[5-(1-pyridinyl]-3-quinolinecarbonitrile [Example 180]” showed an IC50 (Raf-1 (c-Raf)) of 3.7 nM, an IC50 [1] of 930 nM and an IC50 [2] of 5.6 nM.
For “4-({3-chloro-4-[(1-methyl-1H-imidazol-2-yl)sulfanyl]phenyl}amino)-7-[6-(1-piperidinyl)-3-pyridinyl]-3-quinolinecarbonitrile [Example 211]”, the IC50 (Raf-1 (c-Raf)) was 6 nM, the IC50 [1] was > 1000 nM and the IC50 [2] was 5.3 nM.
In the case of “4-{3-chloro-4-[(1-methyl-1H-imidazol-2-yl)sulfanyl]anilino}-7-[4-(1-piperidinylmethyl)phenyl]-3-quinolinecarbonitrile [Example 136]”, the IC50 (Raf-1 (c-Raf)) is reported as 2.5 nM and 1.8 nM, the IC50 [1] is reported as > 1000 nM and the IC50 [2] is reported as 11 nM.
For “4-{3-chloro-4-[(1-methyl-1H-imidazol-2-yl)sulfanyl]anilino}-7-{5-[(4-ethyl-1-piperazinyl)methyl]-2-furyl}-3-quinolinecarbonitrile [Example 156]”, the IC50 (Raf-1 (c-Raf)) was 9 nM and 12 nM, the IC50 [1] was 1000 nM and the IC50 [2] was 5.6 nM.
`Cn1ccnc1Sc1ccc(Nc2c(C#N)cnc3cc(-c4csc(CN5CCOCC5)c4)ccc23)cc1Cl` [Example 33, 4-{3-Chloro-4-[(1-methyl-1H-imidazol-2-yl)sulfanyl]anilino}-7-[5-(4-morpholinylmethyl)-3-thienyl]-3-quinolinecarbonitrite] showed an IC50 (Raf-1 (c-Raf)) of 6 nM and an IC50 [2] of 6 nM.
`Cn1ccnc1Sc1ccc(Nc2c(C#N)cnc3cc(-c4ccc(CN5CCNCC5)cc4)ccc23)cc1Cl` [Example 97, 4-({3-Chloro-4-[(1-methyl-1H-imidazol-2-yl)sulfanyl]phenyl}amino)-7-[4-(1-piperazinylmethyl)phenyl]-3-quinolinecarbonitrile] was tested, and the IC50 (Raf-1 (c-Raf)) was 16 nM, the IC50 [1] was > 1000 nM and the IC50 [2] was 33 nM.
For `Cn1ccnc1Sc1ccc(Nc2c(C#N)cnc3cc(-c4ccc(CN5CCOCC5)cc4)ccc23)cc1Cl` [Example 138], the IC50 (Raf-1 (c-Raf)) was 5.6 nM, the IC50 [1] was 810 nM and the IC50 [2] was 6.2 nM.
`Cn1ccnc1Sc1ccc(Nc2c(C#N)cnc3cc(-c4ccc(CN5CCCCC5)o4)ccc23)cc1Cl` [Example 155, 4-{3-chloro-4-[(1-methyl-1H-imidazol-2-yl)sulfanyl]anilino}-7-[5-(1-piperidinylmethyl)-2-furyl]-3-quinolinecarbonitrile] gave an IC50 (Raf-1 (c-Raf)) of 20 nM.
`Cn1ccnc1Sc1ccc(Nc2c(C#N)cnc3cc(-c4cnc(N5CCOCC5)nc4)ccc23)cc1Cl` [Example 191, 4-{3-chloro-4-[(1-methyl-1H-imidazol-2-yl)sufanyl]anilino}-7-[2-(4-morpholinyl)-5-pyrimidinyl]-3-quinolinecarbonitrile] was tested, and the IC50 (Raf-1 (c-Raf)) was 1 nM, the IC50 [1] was > 10000 nM and the IC50 [2] was 30 nM.
`CN1CCN(Cc2ccnc(-c3ccc4c(Nc5ccc(Sc6nccn6C)c(Cl)c5)c(C#N)cnc4c3)c2)CC1` [Example 206, 4-({3-chloro-4-[(1-methyl-1H-imidazol-2-yl)sulfanyl]phenyl}amino)-7-{4-[(4-methyl-1-piperazinyl)methyl]-2-pyridinyl}-3-quinolinecarbonitrile] was tested, and the IC50 ([1]; Homo sapiens, Caco-2, 96 h) was > 1000 nM and the IC50 ([2]; Homo sapiens, 96 h) was 280 nM.
`Cn1ccnc1Sc1ccc(Nc2c(C#N)cnc3cc(-c4ccc(N5CCC(N6CCCC6)CC5)nc4)ccc23)cc1Cl` [Example 210, 4-({3-chloro-4-[(1-methyl-1H-imidazol-2-yl)sulfanyl]phenyl}amino)-7-{6-[4-(1-pyrrolidinyl)-1-piperidinyl]-3-pyridinyl}-3-quinolinecarbonitrile] showed an IC50 ([1]; Homo sapiens, Caco-2, 96 h) of 590 nM and an IC50 ([2]; Homo sapiens, 96 h) of 3.2 nM.
Work on `COCCN(C)c1ccc(-c2ccc3c(Nc4ccc(Sc5nccn5C)c(Cl)c4)c(C#N)cnc3c2)cn1` [Example 212, 4-({3-chloro-4-[(1-methyl-1H-imidazol-2-yl)sulfanyl]phenyl}amino)-7-{6-[(2-methoxyethyl)(methyl)amino]-3-pyridinyl}-3-quinolinecarbonitrile] yielded an IC50 ([1]; Homo sapiens, Caco-2, 96 h) of 780 nM and an IC50 ([2]; Homo sapiens, 96 h) of 4 nM.
In the case of `CCOC(=O)C1CCN(c2ccc(-c3ccc4c(Nc5ccc(Sc6nccn6C)c(Cl)c5)c(C#N)cnc4c3)cn2)CC1` [Example 213, ethyl 1-{5-[4-({3-chloro-4-[(1-methyl-1H-imidazol-2-yl)sulfanyl]phenyl}amino)-3-cyano-7-quinolinyl]-2-pyridinyl}-4-piperidinecarboxylate], the IC50 ([1]; Homo sapiens, Caco-2, 96 h) is reported as > 1000 nM and the IC50 ([2]; Homo sapiens, 96 h) is reported as 45.2 nM.
With `Cn1ccnc1Sc1ccc(Nc2c(C#N)cnc3cc(-c4ccc(N5CCC(O)CC5)nc4)ccc23)cc1Cl` [Example 214, 4-({3-chloro-4-[(1-methyl-1H-imidazol-2-yl)sulfanyl]phenyl}amino)-7-[6-(4-hydroxy-1-piperidinyl)-3-pyridinyl]-3-quinolinecarbonitrile] the IC50 ([1]; Homo sapiens, Caco-2, 96 h) was > 1000 nM and the IC50 ([2]; Homo sapiens, 96 h) was 5.7 nM.
With `Cn1ccnc1Sc1ccc(Nc2c(C#N)cnc3cc(-c4ccc(N5CCN(CCO)CC5)nc4)ccc23)cc1Cl` [Example 215, 4-({3-chloro-4-[(1-methyl-1H-imidazol-2-yl)sulfanyl]phenyl}amino)-7-{6-[4-(2-hydroxyethyl)-1-piperazinyl]-3-pyridinyl}-3-quinolinecarbonitrile] the IC50 ([1]; Homo sapiens, Caco-2, 96 h) was > 1000 nM and the IC50 ([2]; Homo sapiens, 96 h) was 3.5 nM.
With `CN(CCO)c1ccc(-c2ccc3c(Nc4ccc(Sc5nccn5C)c(Cl)c4)c(C#N)cnc3c2)cn1` [Example 216, 4-({3-chloro-4-[(1-methyl-1H-imidazol-2-yl)sulfanyl]phenyl}amino)-7-{6-[(2-hydroxyethyl)(methyl)amino]-3-pyridinyl}-3-quinolinecarbonitrile] the IC50 ([1]; Homo sapiens, Caco-2, 96 h) was > 1000 nM and the IC50 ([2]; Homo sapiens, 96 h) was 7 nM.
In the case of `Cn1ccnc1Sc1ccc(Nc2c(C#N)cnc3cc(-c4ccc(CN5CCN(CCO)CC5)cn4)ccc23)cc1Cl` [Example 217, 4-({3-chloro-4-[(1-methyl-1H-imidazol-2-yl)sulfanyl]phenyl}amino)-7-(5-{[4-(2-hydroxyethyl)-1-piperazinyl]methyl}-2-pyridinyl)-3-quinolinecarbonitrile], the IC50 ([1]; Homo sapiens, Caco-2, 96 h) is reported as > 1000 nM and the IC50 ([2]; Homo sapiens, 96 h) is reported as 36 nM.
With `Cn1ccnc1Sc1ccc(Nc2c(C#N)cnc3cc(-c4ccc(CN5CCSCC5)cn4)ccc23)cc1Cl` [Example 219] the IC50 ([1]; Homo sapiens, Caco-2, 96 h) was > 1000 nM and the IC50 ([2]; Homo sapiens, 96 h) was 15 nM.
For `CCN1CCN(Cc2ccc(-c3ccc4c(Nc5ccc(Sc6nccn6C)c(Cl)c5)c(C#N)cnc4c3)cn2)CC1` [Example 220, 4-({3-chloro-4-[(1-methyl-1H-imidazol-2-yl)sulfanyl]phenyl}amino)-7-{6-[(4-ethyl-1-piperazinyl)methyl]-3-pyridinyl}-3-quinolinecarbonitrile], the IC50 ([1]; Homo sapiens, Caco-2, 96 h) was > 1000 nM and the IC50 ([2]; Homo sapiens, 96 h) was 7.7 nM.
In the case of `CN1CCN(Cc2ccc(-c3ccc4c(Nc5ccc(Sc6nccn6C)c(Cl)c5)c(C#N)cnc4c3)cn2)CC1` [Example 221, 4-({3-chloro-4-[(1-methyl-1H-imidazol-2-yl)sulfanyl]phenyl}amino)-7-{6-[(4-methyl-1-piperazinyl)methyl]-3-pyridinyl}-3-quinolinecarbonitrile], the IC50 ([1]; Homo sapiens, Caco-2, 96 h) is reported as > 1000 nM and the IC50 ([2]; Homo sapiens, 96 h) is reported as 74 nM.
For `N#Cc1cnc2cc(-c3csc(CN4CCCCC4)c3)ccc2c1Nc1ccc(Sc2ccccc2)c(Cl)c1` [Example 462, 4-{[3-chloro-4-(phenylsulfanyl)phenyl]amino}-7-[5-(1-piperidinylmethyl)-3-thienyl]-3-quinolinecarbonitrile], the IC50 (Raf-1 (c-Raf)) was 50 nM.
